# Experimental data: patent publication US8163771B2, “11 β-HSD1 modulators” (Exelixis, Inc., priority 2008, dated 2012)
# Target: T1, recombinant human 11 β-HSD1 (Homo sapiens, UniProt P28845)
# T1 construct: made in house; host or cells: E. coli
# Assay: 11 β-HSD1 SPA Assay (Scintillation Proximity Assay)
# Type: biochemical
# In short: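 E. coli-expressed human enzyme (30-100 nM) with tritiated cortisone 40 nM and NADPH 1 mM in HEPES buffer pH7.4, 2 hours at room temperature. Stopped with protein A SPA beads carrying anti-cortisol antibody and glycyrrhetinic acid; counted after overnight incubation. IC50 from percent inhibition between no-enzyme and no-compound signals.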
# T1 sequence (P28845 whole entry): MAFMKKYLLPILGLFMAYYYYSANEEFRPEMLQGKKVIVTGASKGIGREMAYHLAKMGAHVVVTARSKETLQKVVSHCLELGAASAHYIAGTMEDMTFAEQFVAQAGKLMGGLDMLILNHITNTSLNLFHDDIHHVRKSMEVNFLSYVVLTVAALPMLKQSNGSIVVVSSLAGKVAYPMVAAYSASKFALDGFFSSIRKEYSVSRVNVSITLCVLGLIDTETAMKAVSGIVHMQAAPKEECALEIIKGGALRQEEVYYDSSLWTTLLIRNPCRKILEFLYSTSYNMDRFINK
row,Structure (SMILES),IC50 [µM]
1,"Cc1ccc(OC(C)(C)C(=O)N[C@H]2C[C@H]3CC[C@@H](C2)N3c2ccc(S(C)(=O)=O)cn2)c(Cl)c1 [Example 212, 2-[(2-chloro-4-methylphenyl)oxy]-2-methyl-N-{8-[5-(methylsulfonyl)pyridin-2-yl]-8-azabicyclo[3.2.1]oct-3-endo-yl}propanamide]",< 0.2
2,"CC(C)(Oc1ccc(Cl)cc1Cl)C(=O)N[C@H]1C[C@H]2CC[C@@H](C1)N2c1ncc(C(=O)NCC(F)(F)F)cc1Cl [Example 131, 5-chloro-6-[3-endo-({2-[(2,4-dichlorophenyl)oxy]-2-methylpropanoyl}amino)-8-azabicyclo[3.2.1]oct-8-yl]-N-(2,2,2-trifluoroethyl)pyridine-3-carboxamide]",< 0.2
3,"O=C(NC1CC1)c1ccc(N2[C@@H]3CC[C@H]2C[C@@H](NC(=O)C2(c4ccc(Cl)cc4)CC2)C3)c(F)c1 [Example 148, 4-[3-endo-({[1-(4-chlorophenyl)cyclopropyl]carbonyl}amino)-8-azabicyclo[3.2.1]oct-8-yl]-N-cyclopropyl-3-fluorobenzamide]",< 0.2
4,"CC(C)(Oc1ccc(Cl)cc1C(F)(F)F)C(=O)N[C@H]1C[C@H]2CC[C@@H](C1)N2c1ccc(S(C)(=O)=O)cn1 [Example 263, 2-{[4-chloro-2-(trifluoromethyl)phenyl]oxy}-2-methyl-N-{8-[5-(methylsulfonyl)pyridin-2-yl]-8-azabicyclo[3.2.1]oct-3-endo-yl}propanamide]",< 0.2
5,"CC(C)(Oc1ccc(Cl)cc1Cl)C(=O)N[C@H]1C[C@H]2CC[C@@H](C1)N2c1ccc(C(=O)NCCCn2ccnc2)cn1 [Example 341, 6-(3-endo-{[2-(2,4-dichlorophenoxy)-2-methylpropanoyl]amino}-8-azabicyclo[3.2.1]oct-8-yl)-N-[3-(1h-imidazol-1-yl)propyl]pyridine-3-carboxamide]",< 0.2
6,"Nc1ccc(N2[C@@H]3CC[C@H]2C[C@@H](NC(=O)C2(c4ccc(Cl)cc4)CC2)C3)nc1 [Example 61, N-[8-(5-aminopyridin-2-yl)-8-azabicyclo[3.2.1]oct-3-endo-yl]-1-(4-chlorophenyl)cyclopropanecarboxamide]",< 0.2
7,"CC(C)(Oc1ccc(Cl)cc1Cl)C(=O)N[C@H]1C[C@H]2CC[C@@H](C1)N2c1ccc(NC(=O)C(F)(F)F)cn1 [Example 146, 2-[(2,4-dichlorophenyl)oxy]-2-methyl-N-(8-{5-[(trifluoroacetyl)amino]pyridin-2-yl}-8-azabicyclo[3.2.1]oct-3-endo-yl)propanamide]",< 0.2
8,"CC(C)(Oc1ccc(Cl)cc1OC(F)(F)F)C(=O)N[C@H]1C[C@H]2CC[C@@H](C1)N2c1ccc(C(=O)NC2(CO)CC2)cn1 [Example 427, 6-[3-endo-({2-[4-chloro-2-(trifluoromethoxy)phenoxy]-2-methylpropanoyl}amino)-8-azabicyclo[3.2.1]oct-8-yl]-N-[1-(hydroxymethyl)cyclopropyl] pyridine-3-carboxamide]",< 0.2
9,"CC(C)NC(=O)c1ccc(N2[C@@H]3CC[C@H]2C[C@@H](NC(=O)C(C)(C)Oc2ccc(Cl)c(Cl)c2)C3)nc1 [Example 79, 6-[3-endo-({2-[(3,4-dichlorophenyl)oxy]-2-methylpropanoyl}amino)-8-azabicycio[3.2.1]oct-8-yl]-N-(1-methylethyl)pyridine-3-carboxamide]",< 0.2
10,"CC(C)(Oc1ccc(C(F)(F)F)cc1)C(=O)N[C@H]1C[C@H]2CC[C@@H](C1)N2c1ccc(C(N)=O)cn1 [Example 172, 6-{3-endo-[(2-methyl-2-{[4-(trifluoromethyl)phenyl]oxy}propanoyl)amino]-8-azabicyclo[3.2.1]oct-8-yl}pyridine-3-carboxamide]",< 0.2
11,"CC(C)(Oc1ccc(Cl)cc1C(F)F)C(=O)N[C@H]1C[C@H]2CC[C@@H](C1)N2c1ccc(C(=O)NCC(F)F)cn1 [Example 433, 6-[3-endo-({2-[4-chloro-2-(difluoromethyl)phenoxy]-2-methylpropanoyl}amino)-8-azabicyclo[3.2.1]oct-8-yl]-N-(2,2-difluoroethyl)pyridine-3-carboxamide]",< 0.2
12,"CC(C)(Oc1ncc(Cl)cc1F)C(=O)N[C@H]1C[C@H]2CC[C@@H](C1)N2c1ccc(C(=O)NCC(F)F)cn1 [Example 409, 6-(3-endo-(2-(5-chloro-3-fluoropyridin-2-yloxy)-2-methylpropanamido)-8-azabicyclo[3.2.1]octan-8-yl)-N-(2,2-difluoroethyl)nicotinamide]",< 0.2
13,"CC(C)(Oc1ccc(Cl)cc1OC(F)(F)F)C(=O)N[C@H]1C[C@H]2CC[C@@H](C1)N2c1ccc(C(=O)NCC(F)(F)F)cn1 [Example 363, 6-[3-endo-({2-[4-chloro-2-(trifluoromethoxy)phenoxy]-2-methylpropanoyl}amino)-8-azabicyclo[3.2.1]oct-8-yl]-N-(2,2,2-trifluoroethyl)pyridine-3-carboxamide]",< 0.2
14,"CC(C)(Oc1c(Cl)cc(F)cc1Cl)C(=O)N[C@H]1C[C@H]2CC[C@@H](C1)N2c1ccc(S(C)(=O)=O)cn1 [Example 178, 2-[(2,6-dichloro-4-fluorophenyl)oxy]-2-methyl-N-{8-[5-(methylsulfonyl)pyridin-2-yl]-8-azabicyclo[3.2.1]oct-3-endo-yl}propanamide]",< 0.2
15,"Cc1ccc(OC(C)(C)C(=O)N[C@H]2C[C@H]3CC[C@@H](C2)N3c2ccc(S(C)(=O)=O)cc2)c(Cl)c1 [Example 214, 2-[(2-chloro-4-methylphenyl)oxy]-2-methyl-N-{8-[4-(methylsulfonyl)phenyl]-8-azabicyclo[3.2.1]oct-3-endo-yl}propanamide]",< 0.2
16,"CC(C)(Oc1ccc2ccccc2c1)C(=O)N[C@H]1C[C@H]2CC[C@@H](C1)N2c1ccc(C(=O)NCC(F)(F)F)cn1 [Example 338, 6-(3-endo-{[2-methyl-2-(naphthalen-2-yloxy)propanoyl]amino}-8-azabicyclo[3.2.1]oct-8-yl)-N-(2,2,2-trifluoroethyl)pyridine-3-carboxamide]",< 0.2
17,"Cc1cc(F)ccc1OC(C)(C)C(=O)N[C@H]1C[C@H]2CC[C@@H](C1)N2c1ccc(S(C)(=O)=O)cc1 [Example 219, 2-[(4-fluoro-2-methylphenyl)oxy]-2-methyl-N-{8-[4-(methylsulfonyl)phenyl]-8-azabicyclo[3.2.1]oct-3-endo-yl}propanamide]",< 0.2
18,"CC(C)(Oc1cc(C(C)(C)O)c(Cl)cc1Cl)C(=O)N[C@H]1C[C@H]2CC[C@@H](C1)N2c1ccc(C(=O)NCC(F)F)c[n+]1[O-] [Example 479, 6-[3-endo-({2-[2,4-dichloro-5-(2-hydroxypropan-2-yl)phenoxy]-2-methylpropanoyl}amino)-8-azabicyclo[3.2.1]oct-8-yl]-N-(2,2-difluoroethyl)pyridine-3-carboxamide 1-oxide]",< 2
19,"COCCNC(=O)c1ccc(N2[C@@H]3CC[C@H]2C[C@@H](NC(=O)C(C)Oc2ccc(Cl)cc2)C3)nc1 (stereo partly drawn) [Example 67, 6-[3-endo-({2-[(4-chlorophenyl)oxy]propanoyl}amino)-8-azabicyclo[3.2.1]oct-8-yl]-N-[2-(methyloxy)ethyl]pyridine-3-carboxamide]",< 10
20,"CC(C)(Oc1cc(F)c(Cl)cc1Cl)C(=O)N[C@H]1C[C@H]2CC[C@@H](C1)N2c1ccc(S(N)(=O)=O)cn1 [Example 261, N-{8-[5-(aminosulfonyl)pyridin-2-yl]-8-azabicyclo[3.2.1]oct-3-endo-yl}-2-[(2,4-dichloro-5-fluorophenyl)oxy]-2-methylpropanamide]",< 0.2
21,"CC(C)(Oc1ccc2ccccc2c1)C(=O)N[C@H]1C[C@H]2CC[C@@H](C1)N2c1ccc(C(N)=O)cn1 [Example 316, 6-(3-endo-{[2-methyl-2-(naphthalen-2-yloxy)propanoyl]amino}-8-azabicyclo[3.2.1]oct-8-yl)pyridine-3-carboxamide]",< 0.2
22,"CC(C)(Oc1cc(F)c(F)cc1Cl)C(=O)N[C@H]1C[C@H]2CC[C@@H](C1)N2c1ccc(C(N)=O)cn1 [Example 96, 6-[3-endo-({2-[(2-chloro-4,5-difluorophenyl)oxy]-2-methylpropanoyl}amino)-8-azabicyclo[3.2.1]oct-8-yl]pyridine-3-carboxamide]",< 0.2
23,"CC(C)(Oc1ccc(Cl)cc1C(F)F)C(=O)N[C@H]1C[C@H]2CC[C@@H](C1)N2c1ccc(S(C)(=O)=O)cn1 [Example 365, 2-[4-chloro-2-(difluoromethyl)phenoxy]-2-methyl-N-{8-[5-(methylsulfonyl)pyridin-2-yl]-8-azabicyclo[3.2.1]oct-3-endo-yl}propanamide]",< 0.2
24,"CC(C)(Oc1ccc(F)cc1Cl)C(=O)NC1CC2CCC(C1)N2c1ccc(C(=O)NC2CC2(F)F)cn1 (stereo not drawn) [Example 349, 6-(3-endo-{[2-(2-chloro-4-fluorophenoxy)-2-methylpropanoyl]amino}-8-azabicyclo[3.2.1]oct-8-yl)-N-(2,2-difluorocyclopropyl)pyridine-3-carboxamide]",< 0.2
25,"CC(C)(Oc1ccc(Cl)cc1Cl)C(=O)N[C@H]1C[C@H]2CC[C@@H](C1)N2c1ccc(C(=O)NC2CC2)nc1 [Example 163, N-cyclopropyl-5-[3-endo-({2-[(2,4-dichlorophenyl)oxy]-2-methylpropanoyl}amino)-8-azabicyclo[3.2.1]oct-8-yl]pyridine-2-carboxamide]",< 0.2
26,"CC(C)(Oc1ccc(Cl)cc1C(C)(C)O)C(=O)N[C@H]1C[C@H]2CC[C@@H](C1)N2c1ccc(C(=O)NCC(F)F)cn1 [Example 465, 6-[3-endo-({2-[4-chloro-2-(2-hydroxypropan-2-yl)phenoxy]-2-methylpropanoyl}amino)-8-azabicyclo[3.2.1]oct-8-yl]-N-(2,2-difluoroethyl)pyridine-3-carboxamide]",< 0.2
27,"CC(C)(Oc1ccc(Cl)cc1F)C(=O)N[C@H]1C[C@H]2CC[C@@H](C1)N2c1ccc(C(=O)NCC(F)(F)F)cn1 [Example 105, 6-[3-endo-({2-[(4-chloro-2-fluorophenyl)oxy]-2-methylpropanoyl}amino)-8-azabicyclo[3.2.1]oct-8-yl]-N-(2,2,2-trifluoroethyl)pyridine-3-carboxamide]",< 0.2
